Laboratory results: US11634404B2 (priority 2016, dated 2023)

Key:
panel of 168 GPCRs [1] = target: panel of 168 GPCRs (Homo sapiens, UniProt Q9HC97); format: cell-based; settings: GPCR GPR35; agonist, 10 μM
panel of 168 GPCRs [2] = target: panel of 168 GPCRs (Homo sapiens, UniProt Q03431); format: cell-based; settings: GPCR PTHR1; agonist, 10 μM
panel of 168 GPCRs [3] = target: panel of 168 GPCRs (Homo sapiens, UniProt P49238); format: cell-based; settings: GPCR CX3CR1; agonist, 10 μM
panel of 168 GPCRs [4] = target: panel of 168 GPCRs (Homo sapiens, UniProt Q9H1C0); format: cell-based; settings: GPCR GPR92; agonist, 10 μM
panel of 168 GPCRs [5] = target: panel of 168 GPCRs (Homo sapiens, UniProt P30559); format: cell-based; settings: GPCR OXTR; agonist, 10 μM
panel of 168 GPCRs [6] = target: panel of 168 GPCRs (Homo sapiens, UniProt P47898); format: cell-based; settings: GPCR HTR5A; agonist, 10 μM
panel of 168 GPCRs [7] = target: panel of 168 GPCRs (Homo sapiens, UniProt Q96RI0); format: cell-based; settings: GPCR F2RL3; agonist, 10 μM
panel of 168 GPCRs (Homo sapiens, UniProt Q96RI0), sequence (Q96RI0 18-385 limits assumed): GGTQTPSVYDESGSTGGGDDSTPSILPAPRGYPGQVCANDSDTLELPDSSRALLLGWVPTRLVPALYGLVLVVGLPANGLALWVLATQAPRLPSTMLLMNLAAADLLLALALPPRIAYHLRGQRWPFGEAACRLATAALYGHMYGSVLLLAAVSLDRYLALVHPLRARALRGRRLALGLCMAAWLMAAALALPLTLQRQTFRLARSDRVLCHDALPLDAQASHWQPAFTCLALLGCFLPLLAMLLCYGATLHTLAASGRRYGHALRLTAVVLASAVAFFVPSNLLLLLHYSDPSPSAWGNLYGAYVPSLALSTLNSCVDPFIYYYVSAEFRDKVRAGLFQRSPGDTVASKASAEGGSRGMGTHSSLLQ

panel of 168 GPCRs [8] = target: panel of 168 GPCRs (Homo sapiens, UniProt Q9HBW0); format: cell-based; settings: GPCR EDG4; agonist, 10 μM
panel of 168 GPCRs [9] = target: panel of 168 GPCRs (Homo sapiens, UniProt P51681); format: cell-based; settings: GPCR CCR5; agonist, 10 μM
panel of 168 GPCRs [10] = target: panel of 168 GPCRs (Homo sapiens, UniProt P35346); format: cell-based; settings: GPCR SSTR5; agonist, 10 μM
panel of 168 GPCRs [11] = target: panel of 168 GPCRs (Homo sapiens, UniProt Q96P65); format: cell-based; settings: GPCR GPR103; agonist, 10 μM
panel of 168 GPCRs [12] = target: panel of 168 GPCRs (Homo sapiens, UniProt P21728); format: cell-based; settings: GPCR DRD1; agonist, 10 μM
panel of 168 GPCRs [13] = target: panel of 168 GPCRs (Homo sapiens, UniProt P28566); format: cell-based; settings: GPCR HTR1E; agonist, 10 μM
panel of 168 GPCRs [14] = target: panel of 168 GPCRs (Homo sapiens, UniProt P43116); format: cell-based; settings: GPCR PTGER2; agonist, 10 μM
panel of 168 GPCRs [15] = target: panel of 168 GPCRs (Homo sapiens, UniProt Q9Y5N1); format: cell-based; settings: GPCR HRH3; agonist, 10 μM
panel of 168 GPCRs [16] = target: panel of 168 GPCRs (Homo sapiens, UniProt P49683); format: cell-based; settings: GPCR PRLHR; agonist, 10 μM
panel of 168 GPCRs [17] = target: panel of 168 GPCRs (Homo sapiens, UniProt O95977); format: cell-based; settings: GPCR EDG6; agonist, 10 μM
panel of 168 GPCRs [18] = target: panel of 168 GPCRs (Homo sapiens, UniProt P51684); format: cell-based; settings: GPCR CCR6; agonist, 10 μM
panel of 168 GPCRs [19] = target: panel of 168 GPCRs (Homo sapiens, UniProt P61073); format: cell-based; settings: GPCR CXCR4; agonist, 10 μM
panel of 168 GPCRs [20] = target: panel of 168 GPCRs (Homo sapiens, UniProt O95838); format: cell-based; settings: GPCR GLP2R; agonist, 10 μM
panel of 168 GPCRs [21] = target: panel of 168 GPCRs (Homo sapiens, UniProt O14842); format: cell-based; settings: GPCR FFAR1; agonist, 10 μM
D3R Y365A = D3R Y365A (Homo sapiens (Human), UniProt P35462, Y365A); assay: Go BRET assay, mutagenesis; format: cell-based
D3R Y365A, sequence (P35462 whole entry Y365A): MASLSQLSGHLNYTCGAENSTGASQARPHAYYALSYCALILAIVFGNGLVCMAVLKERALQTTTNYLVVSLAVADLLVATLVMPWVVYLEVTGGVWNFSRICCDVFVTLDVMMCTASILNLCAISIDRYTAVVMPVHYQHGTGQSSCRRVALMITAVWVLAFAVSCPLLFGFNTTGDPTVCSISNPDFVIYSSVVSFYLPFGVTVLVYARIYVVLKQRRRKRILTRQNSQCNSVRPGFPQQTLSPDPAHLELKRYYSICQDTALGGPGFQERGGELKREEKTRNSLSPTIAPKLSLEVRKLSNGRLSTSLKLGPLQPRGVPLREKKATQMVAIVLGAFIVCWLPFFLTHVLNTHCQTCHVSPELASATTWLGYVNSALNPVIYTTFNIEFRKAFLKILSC
Excerpt: (§1) Go BRET activation assay. […].
(§2) […]. […] […]. The Y365A mutation had more dramatic effects. […].

D3R Y198A = D3R Y198A (Homo sapiens (Human), UniProt P35462, Y198A); assay: Go BRET assay, mutagenesis; format: cell-based
D3R Y198A, sequence (P35462 whole entry Y198A): as the sequence (P35462 whole entry Y365A) above, with Y198A, A365Y counted along it
Excerpt: as §1, §2

D2 DAR = D2 DAR (Homo sapiens (Human), UniProt P14416); assay: [35S]GTPγS binding assay; format: biochemical; settings: % maximum dopamine response
D2 DAR, sequence (P14416 whole entry): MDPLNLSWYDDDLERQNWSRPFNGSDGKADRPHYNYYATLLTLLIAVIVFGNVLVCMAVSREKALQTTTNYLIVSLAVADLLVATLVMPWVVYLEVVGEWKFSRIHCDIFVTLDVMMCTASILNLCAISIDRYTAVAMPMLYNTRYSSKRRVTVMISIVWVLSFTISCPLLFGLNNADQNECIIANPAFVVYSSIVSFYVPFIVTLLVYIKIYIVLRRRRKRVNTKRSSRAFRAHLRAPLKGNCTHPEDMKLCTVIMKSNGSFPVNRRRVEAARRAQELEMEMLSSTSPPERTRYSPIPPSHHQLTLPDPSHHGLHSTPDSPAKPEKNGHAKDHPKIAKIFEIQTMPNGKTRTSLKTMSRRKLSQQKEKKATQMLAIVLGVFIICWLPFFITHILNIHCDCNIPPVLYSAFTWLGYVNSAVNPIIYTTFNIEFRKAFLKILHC
Excerpt: A [^35S]GTPγS (Perkin Elmer NEG030H) binding assay was utilized as described in the protocol below (Table 7).

[22] = tested on: terminally differentiated SHSY5Y cells; assay: Neuroprotection assay against 6-hydroxydopamine; format: cell-based; settings: 24 h pretreatment, 10 μM 6-hydroxydopamine
Protocol: […]. Protection against total neurite length decrease was measured 24 h later. […].

panel of 168 GPCRs (Homo sapiens, UniProt Q03431), sequence (Q03431 27-593 limits assumed): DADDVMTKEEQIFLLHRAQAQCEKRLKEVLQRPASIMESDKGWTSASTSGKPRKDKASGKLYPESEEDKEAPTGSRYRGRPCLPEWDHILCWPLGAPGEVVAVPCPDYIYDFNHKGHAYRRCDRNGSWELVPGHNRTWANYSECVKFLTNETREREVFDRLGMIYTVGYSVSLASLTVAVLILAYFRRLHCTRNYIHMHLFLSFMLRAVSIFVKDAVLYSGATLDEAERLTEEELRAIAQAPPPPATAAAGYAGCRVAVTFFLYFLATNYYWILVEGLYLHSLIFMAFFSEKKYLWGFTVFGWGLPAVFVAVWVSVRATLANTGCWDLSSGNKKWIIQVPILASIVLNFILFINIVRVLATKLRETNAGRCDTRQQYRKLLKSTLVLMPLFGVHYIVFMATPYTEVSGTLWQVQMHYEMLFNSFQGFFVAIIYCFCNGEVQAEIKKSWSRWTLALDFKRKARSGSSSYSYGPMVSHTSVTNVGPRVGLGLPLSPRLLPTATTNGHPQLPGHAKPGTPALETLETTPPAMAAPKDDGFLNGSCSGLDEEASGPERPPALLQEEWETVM

Compound: COc1ccc(OCCN2CCN(C(=O)c3cc4ccccc4[nH]3)CC2)cc1 [Compound 1, (1H-indol-2-yl)(4-(2-(4-methoxyphenoxy)ethyl)piperazin-1-yl)methanone]
- β-Arrestin Recruitment activity (panel of 168 GPCRs [1]): 6%
- β-Arrestin Recruitment activity (panel of 168 GPCRs [2]): 0%
- β-Arrestin Recruitment activity (panel of 168 GPCRs [3]): 0%
- β-Arrestin Recruitment activity (panel of 168 GPCRs [4]): 6%
- β-Arrestin Recruitment activity (panel of 168 GPCRs [5]): 0%
- β-Arrestin Recruitment activity (panel of 168 GPCRs [6]): 3%
- β-Arrestin Recruitment activity (panel of 168 GPCRs [7]): 4%
- β-Arrestin Recruitment activity (panel of 168 GPCRs [8]): 6%
- β-Arrestin Recruitment activity (panel of 168 GPCRs [9]): 0%
- β-Arrestin Recruitment activity (panel of 168 GPCRs [10]): 3%
- β-Arrestin Recruitment activity (panel of 168 GPCRs [11]): −9%
- β-Arrestin Recruitment activity (panel of 168 GPCRs [12]): 0%
- β-Arrestin Recruitment activity (panel of 168 GPCRs [13]): 4%
- β-Arrestin Recruitment activity (panel of 168 GPCRs [14]): −3%
- β-Arrestin Recruitment activity (panel of 168 GPCRs [15]): 3%
- β-Arrestin Recruitment activity (panel of 168 GPCRs [16]): 4%
- β-Arrestin Recruitment activity (panel of 168 GPCRs [17]): 17%
- β-Arrestin Recruitment activity (panel of 168 GPCRs [18]): 0%
- β-Arrestin Recruitment activity (panel of 168 GPCRs [19]): 17%
- β-Arrestin Recruitment activity (panel of 168 GPCRs [20]): 0%
- β-Arrestin Recruitment activity (panel of 168 GPCRs [21]): 4%
- effect of mutation on efficacy (D3R Y365A): appeared to be unaffected
- potency reduction (D3R Y365A; Y365A mutation): 25,000 fold
- effect of mutation on potency (D3R Y198A): minimal effects on the potency
- signaling efficacy, % that of dopamine (D3R Y198A; Y198A mutation): 64%
- activation of the D2 DAR, [35S]GTPγS binding (D2 DAR): not to activate the D2 DAR
- neuroprotection, dose-response [22]: clear concentration dependent effect
- neuroprotection, protection against total neurite length decrease ([22]; compared with pramipexole): neuroprotection superior to pramipexole
